Results: US20100261736A1, “SUBSTITUTED BICYCLIC HETEROARYL COMPOUNDS FOR THE TREATMENT OF CARDIOVASCULAR DISEASE” (priority 2007, published 2010)

Molecular target: T1, Prostacyclin receptors (IP receptors) of human thrombocyte membranes (Homo sapiens, UniProt P43119)
T1 construct: Thrombocyte membranes are obtained by centrifuging 50 ml of human blood
Test: Binding to prostacyclin receptors (IP receptors) of human thrombocyte membranes, 3H-Iloprost displacement
Conditions: 3 nM 3H-Iloprost, 60 min, room temperature
Protocol: B-1. Studies of Binding to Prostacyclin Receptors (IP Receptors) of Human Thrombocyte Membranes
Thrombocyte membranes are obtained by centrifuging 50 ml of human blood (Buffy coats with CDP Stabilizer, from Maco Pharma, Langen) for 20 min at 160×g. Remove the supernatant (platelet-rich plasma, PRP) and then centrifuge again at 2000×g for 10 min at room temperature. Resuspend the sediment in 50 mM tris(hydroxymethyl)aminomethane, which has been adjusted to a pH of 7.4 with 1 N hydrochloric acid, and store at −20° C. overnight. On the next day, centrifuge the suspension at 80 000×g and 4° C. for 30 min. Discard the supernatant. Resuspend the sediment in 50 mM tris(hydroxymethyl)aminomethane/hydrochloric acid, 0.25 mM ethylene diamine tetraacetic acid (EDTA), pH 7.4, and then centrifuge once again at 80 000×g and 4° C. for 30 min. Take up the membrane sediment in binding buffer (50 mM tris(hydroxymethyl)-aminomethane/hydrochloric acid, 5 mM magnesium chloride, pH 7.4) and store at −70° C. until the binding test.
For the binding test, incubate 3 nM ^3H-Iloprost (592 GBq/mmol, from AmershamBioscience) for 60 min with 300-1000 μg/ml of human thrombocyte membranes per charge (max. 0.2 ml) in the presence of the test substances at room temperature. After stopping, add cold binding buffer to the membranes and wash with 0.1% bovine serum albumin. After adding Ultima Gold Scintillator, quantify the radioactivity bound to the membranes using a scintillation counter. The nonspecific binding is defined as radioactivity in the presence of 1 μM Iloprost (from Cayman Chemical, Ann Arbor) and is as a rule <25% of the bound total radioactivity. The binding data (IC50 values) are determined using the program GraphPad Prism Version 3.02.

T1 sequence (P43119 whole entry): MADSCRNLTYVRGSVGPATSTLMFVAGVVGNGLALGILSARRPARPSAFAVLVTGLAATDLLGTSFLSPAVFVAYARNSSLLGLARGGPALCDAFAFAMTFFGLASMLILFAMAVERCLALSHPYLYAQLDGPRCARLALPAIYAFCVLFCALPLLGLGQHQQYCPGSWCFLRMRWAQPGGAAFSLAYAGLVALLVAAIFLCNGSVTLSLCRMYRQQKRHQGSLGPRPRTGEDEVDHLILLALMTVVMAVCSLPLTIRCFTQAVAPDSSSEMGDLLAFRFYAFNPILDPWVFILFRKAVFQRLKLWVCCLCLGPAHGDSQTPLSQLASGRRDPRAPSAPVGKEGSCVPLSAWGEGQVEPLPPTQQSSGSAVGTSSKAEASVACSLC

SMILES	IC50 [nM]
COc1ccc(-c2c(-c3ccccc3)[nH]c3ncnc(O[C@H](C)CCCCC(=O)O)c23)cc1 [Example 5, (6R)-6-{[5-(4-Methoxyphenyl)-6-phenyl-7H-pyrrolo[2,3-d]pyrimidin-4-yl]oxy}heptanoic acid]	39
CCc1ccc(-c2c(-c3ccccc3)sc3ncnc(O[C@H](C)CCCCC(=O)O)c23)cc1 [Example 9, (6R)-6-{[5-(4-ethylphenyl)-6-phenylthieno[2,3-d]pyrimidin-4-yl]oxy}heptanoic acid]	208
COc1ccc(-c2c(-c3ccccc3)oc3cccc(OCCCCCC(=O)O)c23)cc1 [Example 12, 6-{[3-(4-Methoxyphenyl)-2-phenyl-1-benzofuran-4-yl]oxy}hexanoic acid]	984
COc1ccc(-c2c(-c3ccccc3)oc3ccnc(NCC(C)(C)COCC(=O)O)c23)cc1 [Example 19, (3-{[3-(4-Methoxyphenyl)-2-phenylfuro[3,2-c]pyridin-4-yl]amino}-2,2-dimethylpropoxy)acetic acid]	98

Further lines, results first:

IC50 [nM]	SMILES
35	CCc1ccc(-c2c(-c3ccccc3)oc3nccc(NCC(C)(C)COCCC(=O)O)c23)cc1 [Example 21, 3-(3-{[3-(4-Ethylphenyl)-2-phenylfuro[2,3-b]pyridin-4-yl]amino}-2,2-dimethylpropoxy)-propanoic acid]
39	CCc1ccc(-c2c(-c3ccccc3)oc3nccc(O[C@H](C)CCCCC(=O)O)c23)cc1 [Example 28, (6R)-6-{[3-(4-ethylphenyl)-2-phenylfuro[2,3-b]pyridin-4-yl]oxy}heptanoic acid]
1700	CCc1ccc(-c2c(-c3ccccc3)oc3nccc(OCCOCCC(=O)O)c23)cc1 [Example 29]

Tested on: not given
Test: not given
Conditions: non-enzymatic transformation to inactive metabolite 6-keto-prostaglandin-F1alpha; cited from earlier work

SMILES	half-life
CCCCC[C@H](O)/C=C/[C@@H]1[C@H]2C/C(=C/CCCC(=O)O)O[C@H]2C[C@H]1O [PGI2]	approx. 3 minutes
